Where two headings read alike, the source gives them in different places.
Legend:
[1] = In vitro aldehyde capture capacity experiment (complexation with nonanal, HPLC at 254 nm)
Text: Experimental Embodiment 1: In Vitro Aldehyde Capture Capacity Experiment
1. Experiment Objectives and Processes
Objectives: Xerophthalmia is caused by inflammation inside the eyes, wherein the inflammation may produce aldehydes in the body that will accelerate the inflammation symptoms and worsen the xerophthalmia if not eliminated in time. In the experiment, a relatively good compound was selected according to the complexing capacity of the drug and aldehydes in vivo by simulating the in vivo environment.
Processes: Sulfobutyl-B-cyclodextrin (310 mg) was dissolved in a phosphate buffer (1.25 mL) to prepare a solution.
Nonanal (5.0 mg, 32 μmol, 1.0 eq) and triolein (300 mg) were added to a reaction flask at room temperature, after the prepared solution described above was added thereto, linoleic acid (300 mg) was added thereto, and finally a dimethyl sulfoxide (0.15 mL) solution containing the compound (32 μmol, 1.0 eq) of the present disclosure was added thereto; the reaction solution was reacted at 20-23° C.
The reaction solution was reacted under stirring for 10 min, 100 min, 200 min, and 300 min respectively, and sampled for high performance liquid chromatography after the solution was stratified after standing for 2 min.
Sampling method: 25 μL of an upper emulsified layer and 50 μL of a lower aqueous layer were sampled by a pipette, and samples were diluted with 1 mL of methanol.
Therefore, the percentage contents of complexes at 254 nm under high performance liquid chromatography were compared to observe the ability of compounds to capture and complex aldehydes, as shown in FIG. 4 and Table 6:
The HPLC analysis method is detailed in Table 7, which is XBRIGE 2.5 μm, 3.0*100 mm 5-80CD_XBEH_12 min_0.8.lcm
After 300 min of reaction, retention times of 6.689 min, 6.787 min, 6.966 min, and 7.102 min were absorption peaks of products complexed with monomolecular aldehyde; retention times of 8.905 min, 9.010 min, and 9.075 min were absorption peaks of products complexed with bimolecular aldehyde.

CYP1A2 = target: T1, CYP1A2 (Homo sapiens, UniProt P05177); assay: Inhibition of human liver microsomal cytochrome P450 CYP1A2; assay type: in vitro ADME; details: pooled human liver microsomes, probe substrate, NADPH
T1 construct: pooled human liver microsomes were selected as a CYP450 enzyme source; from tissue; host or cells: pooled human liver microsomes
T1 sequence (P05177 1-516): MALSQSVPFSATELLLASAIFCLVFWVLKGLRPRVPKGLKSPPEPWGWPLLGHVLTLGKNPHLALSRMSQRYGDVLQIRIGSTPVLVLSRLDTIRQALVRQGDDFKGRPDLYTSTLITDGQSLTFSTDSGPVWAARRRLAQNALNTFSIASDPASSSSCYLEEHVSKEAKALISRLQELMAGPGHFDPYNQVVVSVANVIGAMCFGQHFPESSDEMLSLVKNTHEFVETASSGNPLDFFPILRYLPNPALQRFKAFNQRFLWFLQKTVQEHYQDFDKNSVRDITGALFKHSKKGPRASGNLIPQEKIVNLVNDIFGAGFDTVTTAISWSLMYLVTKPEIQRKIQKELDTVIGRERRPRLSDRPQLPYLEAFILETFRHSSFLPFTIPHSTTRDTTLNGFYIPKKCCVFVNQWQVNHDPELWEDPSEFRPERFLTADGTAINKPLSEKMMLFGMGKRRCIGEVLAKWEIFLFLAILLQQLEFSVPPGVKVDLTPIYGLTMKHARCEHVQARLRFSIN
Text: (§1) Experimental objective: To study the inhibitory effect of compounds on human liver microsomal cytochrome P450. Experimental processes: In the study on inhibition of the compounds on the human liver microsomal cytochrome P450 (CYP1A2, CYP2C9, CYP2C19, CYP2D6 and CYP3A4), pooled human liver microsomes were selected as a CYP450 enzyme source.

CYP2C9 = target: T2, CYP2C9 (Homo sapiens, UniProt P11712); assay: Inhibition of human liver microsomal cytochrome P450 CYP2C9; assay type: in vitro ADME; details: pooled human liver microsomes, probe substrate, NADPH
T2 construct: pooled human liver microsomes were selected as a CYP450 enzyme source; from tissue; host or cells: pooled human liver microsomes
T2 sequence (P11712 whole entry): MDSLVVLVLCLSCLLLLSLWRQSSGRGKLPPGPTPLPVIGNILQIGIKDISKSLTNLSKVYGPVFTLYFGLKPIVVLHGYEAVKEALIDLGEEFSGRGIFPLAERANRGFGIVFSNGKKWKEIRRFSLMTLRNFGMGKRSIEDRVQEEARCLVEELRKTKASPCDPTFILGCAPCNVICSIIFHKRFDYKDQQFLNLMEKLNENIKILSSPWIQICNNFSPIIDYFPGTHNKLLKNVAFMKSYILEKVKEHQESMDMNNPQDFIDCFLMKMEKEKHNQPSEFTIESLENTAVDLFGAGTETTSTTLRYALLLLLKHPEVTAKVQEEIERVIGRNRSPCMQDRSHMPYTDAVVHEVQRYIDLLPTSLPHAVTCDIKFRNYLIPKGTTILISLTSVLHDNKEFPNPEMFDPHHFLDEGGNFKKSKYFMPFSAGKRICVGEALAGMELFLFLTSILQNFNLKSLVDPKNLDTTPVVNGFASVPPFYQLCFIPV
Text: as §1

CYP2C19 = target: T3, CYP2C19 (Homo sapiens, UniProt P33261); assay: Inhibition of human liver microsomal cytochrome P450 CYP2C19; assay type: in vitro ADME; details: pooled human liver microsomes, probe substrate, NADPH
T3 construct: pooled human liver microsomes were selected as a CYP450 enzyme source; from tissue; host or cells: pooled human liver microsomes
T3 sequence (P33261 whole entry): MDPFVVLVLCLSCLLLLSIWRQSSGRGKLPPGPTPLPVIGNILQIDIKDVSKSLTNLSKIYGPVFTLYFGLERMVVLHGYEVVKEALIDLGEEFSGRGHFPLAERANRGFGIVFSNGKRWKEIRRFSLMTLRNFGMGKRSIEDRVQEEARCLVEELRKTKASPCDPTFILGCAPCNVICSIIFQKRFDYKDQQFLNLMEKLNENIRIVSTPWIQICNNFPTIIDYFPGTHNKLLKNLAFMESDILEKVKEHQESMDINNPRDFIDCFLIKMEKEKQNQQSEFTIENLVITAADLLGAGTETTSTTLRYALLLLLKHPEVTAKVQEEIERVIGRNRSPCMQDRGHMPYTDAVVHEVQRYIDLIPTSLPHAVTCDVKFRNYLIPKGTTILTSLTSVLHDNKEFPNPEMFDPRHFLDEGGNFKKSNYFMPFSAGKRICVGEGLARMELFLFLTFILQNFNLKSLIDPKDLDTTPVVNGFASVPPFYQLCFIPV
Text: as §1

CYP2D6 = target: T4, CYP2D6 (Homo sapiens, UniProt P10635); assay: Inhibition of human liver microsomal cytochrome P450 CYP2D6; assay type: in vitro ADME; details: pooled human liver microsomes, probe substrate, NADPH
T4 construct: pooled human liver microsomes were selected as a CYP450 enzyme source; from tissue; host or cells: pooled human liver microsomes
T4 sequence (P10635 whole entry): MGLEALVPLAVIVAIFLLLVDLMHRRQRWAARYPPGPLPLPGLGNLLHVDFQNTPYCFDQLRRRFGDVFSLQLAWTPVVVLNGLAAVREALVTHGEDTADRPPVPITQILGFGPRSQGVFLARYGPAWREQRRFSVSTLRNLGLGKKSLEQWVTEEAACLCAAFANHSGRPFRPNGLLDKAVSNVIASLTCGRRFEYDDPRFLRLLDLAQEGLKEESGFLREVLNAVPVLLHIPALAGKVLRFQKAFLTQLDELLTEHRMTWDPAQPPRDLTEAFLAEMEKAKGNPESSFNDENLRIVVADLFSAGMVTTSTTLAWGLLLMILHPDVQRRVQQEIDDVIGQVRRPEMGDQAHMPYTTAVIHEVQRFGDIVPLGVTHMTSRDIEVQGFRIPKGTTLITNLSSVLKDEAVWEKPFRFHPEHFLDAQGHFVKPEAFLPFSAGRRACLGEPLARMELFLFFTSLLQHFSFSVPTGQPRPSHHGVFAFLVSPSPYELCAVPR
Text: as §1

CYP3A4 = target: T5, CYP3A4 (Homo sapiens, UniProt P08684); assay: Inhibition of human liver microsomal cytochrome P450 CYP3A4; assay type: in vitro ADME; details: pooled human liver microsomes, two probe substrates, NADPH
T5 construct: pooled human liver microsomes were selected as a CYP450 enzyme source; from tissue; host or cells: pooled human liver microsomes
T5 sequence (P08684 whole entry): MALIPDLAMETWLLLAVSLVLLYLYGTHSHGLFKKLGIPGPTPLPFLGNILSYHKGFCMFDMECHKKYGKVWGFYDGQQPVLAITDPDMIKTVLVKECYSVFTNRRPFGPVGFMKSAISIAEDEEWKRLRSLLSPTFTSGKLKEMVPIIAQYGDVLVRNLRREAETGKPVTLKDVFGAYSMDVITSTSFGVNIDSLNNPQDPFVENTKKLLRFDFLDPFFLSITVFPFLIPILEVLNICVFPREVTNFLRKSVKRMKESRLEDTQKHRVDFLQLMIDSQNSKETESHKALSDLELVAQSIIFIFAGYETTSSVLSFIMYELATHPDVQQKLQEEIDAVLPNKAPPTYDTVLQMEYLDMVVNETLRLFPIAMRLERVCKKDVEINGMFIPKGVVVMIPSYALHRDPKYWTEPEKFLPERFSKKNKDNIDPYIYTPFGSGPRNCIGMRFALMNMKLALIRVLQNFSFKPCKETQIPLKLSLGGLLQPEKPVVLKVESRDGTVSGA
Text: as §1

[2] = Pharmacokinetics in Beagle dogs, single intravenous injection; assay type: in vivo; details: male, dog, plasma, 1 mg/kg single intravenous injection
Experimental: Experimental objective: To study pharmacokinetics of the compound in Beagle dogs
Experimental material: Beagle dogs (male, 8-11 kg, greater than or equal to 6 months, Marshall)
(§2) Pharmacokinetic characteristics of the compound were tested by intravenous injection in rodents according to the standard protocol. In the experiment, the candidate compound was prepared as a clear solution, and was administrating to Beagle dogs at 1 mg/kg by single intravenous injection. A vehicle for intravenous injection was a 10% hydroxypropyl β-cyclodextrin aqueous solution. Whole blood samples were collected at 0.033, 0.083, 0.25, 0.5, 1, 2, 4, 8, 12, and 24 hours, respectively, centrifuged at 3000 r for 10 min, and the supernatant was separated to obtain plasma samples. 20 μL of plasma samples were mixed with 400 μL of acetonitrile solution containing internal standard to precipitate protein, and the mixture was centrifuged, then 2 μL of the supernatant was injected. Plasma concentrations were quantitatively analyzed by LC-MS/MS analysis method, and pharmacokinetic parameters, such as clearance rate, half-life, and area under the concentration-time curve, were calculated.

[3] = Pharmacokinetics in cynomolgus monkeys, single intravenous injection; assay type: in vivo; details: male, cynomolgus monkey, plasma, 1 mg/kg single intravenous injection
Experimental: Experimental objective: To study pharmacokinetics of the compound in cynomolgus monkeys
Experimental material: Cynomolgus monkeys (male, 2.5-4 kg, greater than or equal to 2 years, Hainan Jingang)
as §2, with “monkeys” for “rodents”, “cynomolgus monkeys” for “Beagle dogs”, “hours,” for “hours, respectively,”

[4] = Corneal to plasma drug concentration after eye drop administration in rats; assay type: in vivo; details: male, rat, topical, SD rats
Experimental: Experimental objective: To study the ratio of corneal to plasma drug concentration after eye drop administration in rats
Experimental material: Male SD rats, 200-300 g, 7-9 weeks old, Shanghai Lingchang
Experimental processes: The candidate compound was prepared as a clear solution, and administrating to SD rats by eye drop administration. The vehicle for eye drops was 10% hydroxypropyl β-cyclodextrin aqueous solution, and the drug concentration in the eye drops was 5 mg/mL. Corneal and whole blood samples were collected at 1 and 4 hours, respectively. Corneal was homogenized using 15 mM phosphate buffer (PBS): MeOH (2:1, v:v) buffer, then the whole blood samples were centrifuged at 3000 r for 10 min, and the supernatant plasma samples were separated. 20 μL of the plasma samples and homogenate samples were respectively mixed with 400 μL of acetonitrile solution containing internal standard to precipitate protein, and the mixture was centrifuged, then 2 μL of the supernatant was injected. The plasma concentrations were quantitatively analyzed by LC-MS/MS analysis method; the drug concentrations in the cornea and plasma were measured respectively according to different time points, and the ratio of corneal/plasma was calculated.

xerophthalmia in mice = assay: In vivo efficacy: scopolamine-induced xerophthalmia in mice (tear test, corneal fluorescence staining score); design: species or system C57BL/6J mice; details: scopolamine model, 0.5% eye drops 3 μL/eye 4 times/day
Text: Subcutaneous injection of scopolamine may induce the xerophthalmia in mice. Decreased tear secretion and inflammatory infiltration can be observed by tear tests and corneal fluorescence staining scores. Furthermore, it is possible to predict whether the model can reach the expected severity at the beginning of the modeling.
Experimental Design: • Twenty animals were selected from 25 female C57BL/6J mice and randomized into 4 groups by body weight via Provantis or Excel, […], and the grouping might also refer to the results of the tear test and the corneal fluorescence staining score of each animal prior to the experiment. • The mice were injected subcutaneously with scopolamine hydrobromide (3±0.5 h) for 4 times daily at 0.1 mL/animal/time on Day 1 to Day 12 of the experiment to establish xerophthalmia models in the mice. • On Day 1 to Day 13 of the experiment, animals were administrated by binocular eye drops for 4 times daily (3±0.5 h) at 3 μL/eye (on Day 13, animals in Group 1 were not administrated). […]
Tear tests and corneal fluorescence staining scores were performed on all experimental animals on Day 7 and Day 12 prior to modeling.
Criteria for corneal fluorescence staining scores: The cornea of an animal was divided into 5 regions, respectively being upper, lower, nasal, temporal and central regions, and each region was 0-3 points, and each region was scored. […]

[5] = read-out: Area under the concentration-time curve AUC
[6] = read-out: Half-life T1/2 (converted)

IC50 (CYP1A2): > 50 µM | IC50 (CYP2C9): > 50 µM | IC50 (CYP2C19): > 50 µM | IC50 (CYP2D6): > 50 µM | IC50 (CYP3A4): > 50 µM | AUC [2, 5]: 4.67 µM·h | clearance ([2]; read-out: Clearance rate): 11.3 mL/min/kg | half-life [2, 6]: 2.94 h | AUC [3, 5]: 13 µM·h | clearance ([3]; read-out: Clearance rate): 4.6 mL/min/kg | half-life [3, 6]: 3.91 h | concentration at 1 h ([4]; cornea, eye drops 5 mg/mL, 1 h, read-out: Corneal concentration): 2450 nM | concentration at 4 h ([4]; cornea, eye drops 5 mg/mL, 4 h, read-out: Corneal concentration): 330 nM | Kp ([4]; cornea/plasma, 5 mg/mL, eye drop administration, read-out: Ratio of cornea/plasma): > 10 | Kp at 1 h ([4]; cornea/plasma, eye drops 5 mg/mL, 1 h, read-out: Corneal concentration/plasma concentration C/P ratio): 11.8 | Kp at 4 h ([4]; cornea/plasma, eye drops 5 mg/mL, 4 h, read-out: Corneal concentration/plasma concentration C/P ratio): 12.4 | concentration at 1 h ([4]; plasma, eye drops 5 mg/mL, 1 h, read-out: Plasma concentration): 172 nM | concentration at 4 h ([4]; plasma, eye drops 5 mg/mL, 4 h, read-out: Plasma concentration): 24.4 nM
SMILES: CC(C)(O)c1cc(F)c(-c2cnc(C(C)(C)O)c(N)c2)cc1N [Compound represented by formula (I)]
Ability and speed of complexing aldehydes [1]: very significant | Percentage content of complexes at 254 nm ([1]; Time 10 min): 6.634% | Percentage content of complexes at 254 nm ([1]; Time 100 min): 20.013% | Percentage content of complexes at 254 nm ([1]; Time 200 min): 29.424% | Percentage content of complexes at 254 nm ([1]; Time 300 min): 36.039% | Area under the curve AUC ([1]; percentage content of complexes at 254 nm versus time, 10-300 min): 6944 min.conversion | Slope ([1]; slope of linear equation, percentage content of complexes at 254 nm versus time 10-300 min, nonanal 1.0 eq, 20-23° C.): 0.1002 | Tear secretion (xerophthalmia in mice; FIG. 5): improve | Corneal inflammation (corneal fluorescence staining) (xerophthalmia in mice; FIG. 6): improve

— patent US11753377B2, “Crystal form of 2-methyl-2-propanol and amino-substituted aryl compound” (ZHUHAI UNITED LABORATORIES CO., LTD., priority 2020, dated 2023)
